Laboratory results as given in patent US10723741B1, “DNA polymerase IIIC inhibitors and use thereof” (Acurx Pharmaceuticals, LLC, priority 2018, dated 2020).
In brackets after ≈: the same amount, converted by molar mass. Read-outs that look alike come from different tables or passages of the source.

Experiments:
Type in all cases: cell-based
[1] = tested on: Staphylococcus aureus NRS384 (MRSA); assay: Broth microdilution MIC, S. aureus NRS384 (MRSA); conditions: Staphylococcus aureus, broth microdilution, 37° C., 20 hours, read-out: MIC NRS 384 (MRSA)
Source text: (§1) Bacteria tested are Staphylococcus aureus NRS384 (a methicillin-resistant Staphylococcus aureus, MRSA), Staphylococcus aureus ATCC 29213 (a methicillin-sensitive Staphylococcus aureus, MSSA), Streptococcus pneumoniae ATCC 49619, Enterococcus faecalis ATCC 29212, Enterococcus faecium ATCC 700221 (a vancomycin-resistant enterococcus, VRE), Bacillus subtilis ATCC 6633, and Escherichia coli ATCC 25922.
(§2) Staphylococcus aureus NRS384 was obtained from NARSA (Network on Antimicrobial Resistance in Staphylococcus aureus, now the strain collection is in BEI resources). Other bacterial isolates were from ATCC (The American Type Culture Collection). Upon receiving the bacteria samples from aforementioned institutes, the bacteria were cultured according to the manuals provided by the suppliers. The bacteria were stored in 25% glycerol (final concentration) at −80° C.
(§3) On the day of testing, the compounds were dissolved in pure DMSO (Sigma 276855-1L) to […] as stock. In a v-bottom 96-well plate (Axygen-wipp02280), 20 μl DMSO was added into well 2 to well 12 by manual pipetting. Into well 1, 12.8 μL of compound DMSO stock (20 mg/ml) was added and mixed with 27.2 μl DMSO by pipetting. Two fold serial dilutions were performed by transferring and mixing 20 μl of solution from well 1 to well 2, then well 2 to well 3 and so forth until well 11. The well 12 was loaded with 20 μl DMSO without compounds. This was drug ‘mother plate’. From well 1 to well 12, the drug concentrations in the mother plate were […] in DMSO. A multi-pipette was used to perform the serial dilutions. The concentration may be adjusted according to the potency of the compounds. An Echo® Acoustic liquid handling system may be used to replace manual pipetting to make the daughter plates.
(§4) One day prior to the day of MIC testing, bacterial strains were streaked out from −80° C. glycerol stocks onto MHA plates and incubated at 37° C. for 20 hours. Streptococcus pneumoniae was streaked on blood agar and incubated at 37° C. in 5% CO2. The single colonies were picked by using an inoculation loop (Greiner-731175) and suspended into 5 ml sterile saline. The turbidity of the suspension was adjusted to 0.10 (Siemens MicroScan turbidity meter), equal to ˜1.0×10^8 cfu/ml. The bacterial suspension was diluted 200× in corresponding test medium (Table 1). This was used to inoculate daughter plates.
(§5) For preparing u-bottom 96-well ‘daughter plates’ (Costar 3788), an aliquot of 1 μl solution from mother plate was then replicating transferred into the daughter plate using a multi-pipette.
(§6) An aliquot of 99 μl of the bacterial suspension was inoculated into each well of the daughter plates using a multi-pipette. Each well contained ˜5.0×10^5 cfu/ml bacteria, 1% DMSO and serially diluted compounds at 64, 32, 16, 8, 4, 2, 1, 0.5, 0.25, 0.125, 0.0625 and 0 μg/ml from well 1 to well 12 respectively, in 100 μl corresponding test medium.
(§7) The plates were incubated in ambient atmosphere and in a 37° C. incubator for 20 hours.
(§8) Compounds of the present invention were tested for antibacterial activity against a variety of bacterial organism including Bacillus subtilis, Staphylococcus aureus, Enterococcus faecalis, Enterococcus faecium, Streptococcus pneumoniae and Escherichia coli. […] Compounds described in Examples 2, 44, 53, 56, 90, 134, 212, 213, 214, 218, 222, 304, 305, and 307 had MIC of ≤1 μg/ml against S. aureus NRS 384 (MRSA) (μg/ml) and E. faecium ATCC 700221 (VRE) (μg/ml).

[2] = tested on: Staphylococcus aureus ATCC 29213 (MSSA); assay: Broth microdilution MIC, S. aureus ATCC 29213 (MSSA); conditions: broth microdilution, 37° C., 20 hours, read-out: MIC S. aureus ATCC 29213 (MSSA)
Source text: as §1, §2, §3, §4, §5, §6, §7, §8

[3] = tested on: Enterococcus faecalis ATCC 29212; assay: Broth microdilution MIC, E. faecalis ATCC 29212; conditions: ATCC29212, broth microdilution, 37° C., 20 hours, read-out: MIC E. faecalis ATCC 29212
Source text: as §1, §2, §3, §4, §5, §6, §7, §8

[4] = tested on: Enterococcus faecium ATCC 700221 (VRE); assay: Broth microdilution MIC, E. faecium ATCC 700221 (VRE); conditions: Enterococcus faecium; broth microdilution, 37° C., 20 hours; read-out: MIC E. faecium ATCC 700221 (VRE)
Source text: as §1, §2, §3, §4, §5, §6, §7, §8

[5] = tested on: Streptococcus pneumoniae ATCC 49619; assay: Broth microdilution MIC, S. pneumoniae ATCC 49619; conditions: ATCC49619, broth microdilution, 37° C., 20 hours, read-out: MIC S. pneumoniae ATCC 49619
Source text: as §1, §2, §3, §4, §5, §6, §7, §8

[6] = tested on: Bacillus subtilis ATCC 6633; assay: Broth microdilution MIC, B. subtilis ATCC 6633; conditions: ATCC6633, broth microdilution, 37° C., 20 hours, read-out: MIC B. subtilis ATCC 6633
Source text: as §1, §2, §3, §4, §5, §6, §7, §8

[7] = tested on: Escherichia coli ATCC 25922; assay: Broth microdilution MIC, E. coli ATCC 25922 (MHIIB w & w/o 4 mM EDTA); conditions: broth microdilution, 37° C., 20 hours; for MIC: Escherichia coli, ATCC25922, without EDTA, read-out: MIC E. coli ATCC 25922; for MIC E. coli ATCC 25922 + 4 mM EDTA: with 4 mM EDTA
Source text: as §1, §2, §3, §4, §5, §6, §7, §8

Row | MIC ([1]; S. aureus NRS 384) [µg/mL] | MIC [2] [µg/mL] | MIC [3] [µg/mL] | MIC [4] [µg/mL] | MIC [5] [µg/mL] | MIC [6] [µg/mL] | MIC [7] [µg/mL] | MIC E. coli ATCC 25922 + 4 mM EDTA [7] | MIC [1] [µg/mL] | SMILES
1 | 2 (≈ 4.89 µM) | 2 (≈ 4.89 µM) | 2 (≈ 4.89 µM) | 1 (≈ 2.44 µM) | 4 (≈ 9.77 µM) | 0.5 (≈ 1.22 µM) | > 64 | >64 µg/mL |  | O=c1[nH]c(NCc2ccc(Cl)c(Cl)c2)nc2c(F)nn(Cc3cocn3)c12 [Compound 306, 5-((3,4-Dichlorobenzyl)amino)-3-fluoro-1-(oxazol-4-ylmethyl)-1H-pyrazolo[4,3-d]pyrimidin-7(6H)-one]
2 |  | 64 (≈ 126 µM) | 64 (≈ 126 µM) | 32 (≈ 62.8 µM) | 16 (≈ 31.4 µM) | 64 (≈ 126 µM) | > 64 | >64 µg/mL | 64 (≈ 126 µM) | O=C(NCCn1ncc2nc(NCc3ccc(Cl)c(Cl)c3)[nH]c(=O)c21)c1cc(O)nnc1Cl [Compound 84, 3-chloro-N-(2-(5-((3,4-dichlorobenzyl)amino)-7-oxo-6,7-dihydro-1H-pyrazolo[4,3-d]pyrimidin-1-yl)ethyl)-6-hydroxypyridazine-4-carboxamide]
3 |  | 8 | 4 | 2 | 4 | 2 | > 64 | >64 µg/mL | 8 | COc1ccncc1C(=O)N1CCC(n2ncc3nc(NCc4ccc(Cl)c(Cl)c4)[nH]c(=O)c32)CC1.Cl [Compound 266, 5-((3,4-Dichlorobenzyl)amino)-1-(1-(4-methoxynicotinoyl)piperidin-4-yl)-1H-pyrazolo[4,3-d]pyrimidin-7(6H)-one hydrochloride]
4 |  | 32 (≈ 80.9 µM) | 32 (≈ 80.9 µM) | 16 (≈ 40.5 µM) | 16 (≈ 40.5 µM) | 64 (≈ 162 µM) | > 64 | >64 µg/mL | 64 (≈ 162 µM) | O=C(O)CCCCn1nc(F)c2nc(NCc3ccc(F)c(F)c3)[nH]c(=O)c21 [Compound 210, 5-(5-((3,4-Difluorobenzyl)amino)-3-fluoro-7-oxo-6,7-dihydro-1H-pyrazolo[4,3-d]pyrimidin-1-yl)pentanoic acid]
5 |  | 64 (≈ 162 µM) | 64 (≈ 162 µM) | 16 (≈ 40.4 µM) | 16 (≈ 40.4 µM) | 32 (≈ 80.8 µM) | > 64 | >64 µg/mL | 64 (≈ 162 µM) | O=C(O)CCCn1ncc2nc(NCc3ccc(Cl)c(Cl)c3)[nH]c(=O)c21 [Compound 145, 4-(5-((3,4-Dichlorobenzyl)amino)-7-oxo-6,7-dihydro-1H-pyrazolo[4,3-d]pyrimidin-1-yl)butanoic acid]
6 |  | > 64 | > 64 | > 64 | > 64 | > 64 | > 64 | >64 µg/mL | > 64 | CNC(=O)c1nn(C)c2c(=O)[nH]c(NCc3ccc(Cl)c(Cl)c3)nc12 [Compound 42, 5-((3,4-dichlorobenzyl)amino)-N, 1-dimethyl-7-oxo-6,7-dihydro-1H-pyrazolo[4,3-d]pyrimidine-3-carboxamide]
7 |  | 32 (≈ 72.3 µM) | 32 (≈ 72.3 µM) | 8 (≈ 18.1 µM) | 16 (≈ 36.2 µM) | 8 (≈ 18.1 µM) | > 64 | >64 µg/mL | 32 (≈ 72.3 µM) | O=c1[nH]c(NCc2ccc(Cl)c(Cl)c2)nc2cnn(CCOCCOCCO)c12 [Compound 115, 5-((3,4-Dichlorobenzyl)amino)-1-(2-(2-(2-hydroxyethoxy)ethoxy)ethyl)-1H-pyrazolo[4,3-d]pyrimidin-7(6H)-one]
8 |  | 8 (≈ 21.7 µM) | 16 (≈ 43.5 µM) | 8 (≈ 21.7 µM) | 4 (≈ 10.9 µM) | 4 (≈ 10.9 µM) | > 64 | >64 µg/mL | 4 (≈ 10.9 µM) | Cn1nc(CCO)c2nc(NCc3ccc(Cl)c(Cl)c3)[nH]c(=O)c21 [Compound 48, 5-((3,4-dichlorobenzyl)amino)-3-(2-hydroxyethyl)-1-methyl-1H-pyrazolo[4,3-d]pyrimidin-7(6H)-one]
9 |  | 8 (≈ 20.2 µM) | 16 (≈ 40.4 µM) | 4 (≈ 10.1 µM) | 16 (≈ 40.4 µM) | 4 (≈ 10.1 µM) | > 64 | 32 µg/mL | 8 (≈ 20.2 µM) | COC(=O)C(C)n1ncc2nc(NCc3ccc(Cl)c(Cl)c3)[nH]c(=O)c21 (centres unmarked) [Compound 227, Methyl 2-(5-((3,4-dichlorobenzyl)amino)-7-oxo-6,7-dihydro-1H-pyrazolo[4,3-d]pyrimidin-1-yl)propanoate]
10 |  | 16 | 16 | 16 | 8 | 4 | > 64 | >64. ug/ml | 16 | COCC(OCCn1ncc2nc(NCc3ccc(Cl)c(Cl)c3)[nH]c(=O)c21)c1cccnc1.Cl (centres unmarked) [Compound 185, 5-((3,4-Dichlorobenzyl)amino)-1-(2-(2-methoxy-1-(pyridin-3-yl)ethoxy)ethyl)-1H-pyrazolo[4,3-d]pyrimidin-7(6H)-one hydrochloride]
11 |  | 32 | 32 | 32 | 8 | 8 | > 64 | 64 µg/mL | 32 | Cl.O=c1[nH]c(NCc2ccc(Cl)c(Cl)c2)nc2cnn(Cc3coc(C4CCCNC4)n3)c12 (centres unmarked) [Compound 173, 5-((3,4-dichlorobenzyl)amino)-1-((2-(piperidin-3-yl)oxazol-4-yl)methyl)-1H-pyrazolo[4,3-d]pyrimidin-7(6H)-one hydrochloride]
12 |  | 16 (≈ 32.9 µM) | 8 (≈ 16.4 µM) | 4 (≈ 8.22 µM) | 8 (≈ 16.4 µM) | 4 (≈ 8.22 µM) | > 64 | >64 µg/mL | 16 (≈ 32.9 µM) | O=c1[nH]c(NCc2ccc(Cl)c(Cl)c2)nc2cnn(CCOC3CCS(=O)(=O)CC3)c12 [Compound 188, 5-((3,4-dichlorobenzyl)amino)-1-(2-((1,1-dioxidotetrahydro-2H-thiopyran-4-yl)oxy)ethyl)-1H-pyrazolo[4,3-d]pyrimidin-7(6H)-one]
13 |  | 8 | > 64 | 2 | 16 | 2 | > 64 | >64 µg/mL | 4 | Cl.Cl.O=c1[nH]c(NCc2ccc(Cl)c(Cl)c2)nc2cnn(C3CCN(c4ccccn4)CC3)c12 [Compound 161, 5-((3,4-dichlorobenzyl)amino)-1-(1-(pyridin-2-yl)piperidin-4-yl)-1H-pyrazolo[4,3-d]pyrimidin-7(6H)-one dihydrochloride]
